These are literature values, as cited in US20110123622A1, “OPHTHALMIC FORMULATION AND METHOD OF MANUFACTURE THEREOF” (Inotek Pharmaceuticals Corporation, priority 2009, published 2011).

This series deals with human exhibiting elevated intraocular pressure as a result of OHT or POAG.

Take `O=[N+]([O-])OC[C@H]1O[C@@H](n2cnc3c(NC4CCCC4)ncnc32)[C@H](O)[C@@H]1O` [Compound A, ((2R,3S,4R,5R)-5-(6-(cyclopentylamino)-9H-purin-9-yl)-3,4-dihydroxytetrahydrofuran-2-yl)methyl nitrate]: the “reduction in IOP, comparison of dose groups” value (350 mcg and 700 mcg treatment groups, HPβCD formulation) is “greatest reduction in IOP”. Moreover, the “IOP upon a single application” value (formulated 1:20 wt/wt in HPβCD, 2.5 to 700 micrograms per eye) is reported as “statistically significant dose-related decrement in IOP”.
